Results as given in EP2818472A1, “Imidazo[4,5-c]pyridine and pyrrolo[3,2-c]pyridine compounds as G-protein-coupled receptor kinase 5 (GRK5) modulators” (Max-Planck-Gesellschaft zur Förderung der Wissenschaften …, priority 2013, dated 2014).

tested on: beta-TC6 cells; assay: Insulin HTRF assay (relative activity Ar) in beta-TC6 cells; type: cell-based, mouse; conditions: Mus musculus, Beta-TC6, 4 h, insulin HTRF, supernatant of beta-TC6 cells, incubation with test compound at 37°C for 2, 3, 4h; read-out: Ar (relative activity)
In short: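 beta-TC6 cells (15k/well, seeded 24 or 48 h) washed, then exposed to compound in induction buffer (0.5% DMSO final) for 2, 3 or 4 h at 37°C.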

SMILES | Emax
COc1cccc(-c2nc3c(Nc4cccc(O)c4)nccc3[nH]2)c1F [Compound 478, 3-[[2-(2-fluoro-3-methoxy-phenyl)-1H-imidazo[4,5-c]pyridin-4-yl]amino]phenol] | 50 to 100%
COc1ccc(Nc2nccc3[nH]c(-c4cccc(OC)c4F)nc23)cc1O [Compound 479, 5-[[2-(2-fluoro-3-methoxy-phenyl)-1H-imidazo[4,5-c]pyridin-4-yl]amino]-2-methoxy-phenol] | > 100%
COc1cccc(-c2nc3c(N4CCOCC4)nccc3[nH]2)c1F [Compound 480, 4-[2-(2-fluoro-3-methoxy-phenyl)-1H-imidazo[4,5-c]pyridin-4-yl]morpholine] | 30 to 50%
COc1cccc(-c2nc3c(Nc4cccc(F)c4)nccc3[nH]2)c1F [Compound 481, 2-(2-fluoro-3-methoxy-phenyl)-N-(3-fluorophenyl)-1H-imidazo[4,5-c]pyridin-4-amine] | 30 to 50%
CNc1nc2cnc(Nc3cc(OC)c(OC)c(OC)c3)cc2n1-c1cc(OC)c(OC)c(OC)c1 [Compound 482, N2-methyl-N6,1-bis(3,4,5-trimethoxyphenyl)imidazo[4,5-c]pyridine-2,6-diamine] | 30 to 50%
CNc1nc2cnc(Nc3ccc(NC(C)=O)cc3)cc2n1-c1cc(OC)c(OC)c(OC)c1 [Compound 483, N-[4-[[2-(methylamino)-1-(3,4,5-trimethoxyphenyl)imidazo[4,5-c]pyridin-6-yl]amino]phenyl]acetamide] | 50 to 100%
CNc1nc2cnc(Nc3cccc(OC)c3)cc2n1-c1cc(OC)c(OC)c(OC)c1 [Compound 484, N6-(3-methoxyphenyl)-N2-methyl-1-(3,4,5-trimethoxyphenyl)imidazo[4,5-c]pyridine-2,6-diamine] | 30 to 50%
CNc1nc2cnc(Nc3ccc(O)cc3)cc2n1-c1cc(OC)c(OC)c(OC)c1 [Compound 485, 4-[[2-(methylamino)-1-(3,4,5-trimethoxyphenyl)imidazo[4,5-c]pyridin-6-yl]amino]phenol] | 50 to 100%
CNc1nc2cnc(Nc3ccc(OC)cc3OC)cc2n1-c1cc(OC)c(OC)c(OC)c1 [Compound 486, N6-(2,4-dimethoxyphenyl)-N2-methyl-1-(3,4,5-trimethoxyphenyl)imidazo[4,5-c]pyridine-2,6-diamine] | 30 to 50%
CNc1nc2cnc(Nc3ccc4c(c3)OCCO4)cc2n1-c1cc(OC)c(OC)c(OC)c1 [Compound 487, N6-(2,3-dihydro-1,4-benzodioxin-6-yl)-N2-methyl-1-(3,4,5-trimethoxyphenyl)imidazo[4,5-c]pyridine-2,6-diamine] | 50 to 100%
CNc1nc2cnc(Nc3ccc(OC)nc3)cc2n1-c1cc(OC)c(OC)c(OC)c1 [Compound 488, N6-(6-methoxy-3-pyridyl)-N2-methyl-1-(3,4,5-trimethoxyphenyl)imidazo[4,5-c]pyridine-2,6-diamine] | 50 to 100%
CNc1nc2cnc(Nc3ccc(N4CCN(C)CC4)cc3)cc2n1-c1cc(OC)c(OC)c(OC)c1 [Compound 489, N2-methyl-N6-[4-(4-methylpiperazin-1-yl)phenyl]-1-(3,4,5-trimethoxyphenyl)imidazo[4,5-c]pyridine-2,6-diamine] | 50 to 100%
CNc1nc2cnc(Nc3ccc(OC)cc3)cc2n1-c1cc(OC)c(OC)c(OC)c1 [Compound 490, N6-(4-methoxyphenyl)-N2-methyl-1-(3,4,5-trimethoxyphenyl)imidazo[4,5-c]pyridine-2,6-diamine] | 50 to 100%
CNc1nc2cnc(Nc3cccc(O)c3)cc2n1-c1cc(OC)c(OC)c(OC)c1 [Compound 491, 3-[[2-(methylamino)-1-(3,4,5-trimethoxyphenyl)imidazo[4,5-c]pyridin-6-yl]amino]phenol] | 50 to 100%
CNc1nc2cnc(Nc3cccc(NS(C)(=O)=O)c3)cc2n1-c1cc(OC)c(OC)c(OC)c1 [Compound 492, N-[3-[[2-(methylamino)-1-(3,4,5-trimethoxyphenyl)imidazo[4,5-c]pyridin-6-yl]amino]phenyl]methanesulfonamide] | 30 to 50%
CNc1nc2cnc(Nc3cccc(NC(C)=O)c3)cc2n1-c1cc(OC)c(OC)c(OC)c1 [Compound 493, N-[3-[[2-(methylamino)-1-(3,4,5-trimethoxyphenyl)imidazo[4,5-c]pyridin-6-yl]amino]phenyl]acetamide] | 50 to 100%
CNc1nc2cnc(Nc3cccc(F)c3)cc2n1-c1cc(OC)c(OC)c(OC)c1 [Compound 494, N6-(3-fluorophenyl)-N2-methyl-1-(3,4,5-trimethoxyphenyl)imidazo[4,5-c]pyridine-2,6-diamine] | 30 to 50%
CNc1nc2cnc(Nc3ccc(OC)c(OC)c3)cc2n1CCOC [Compound 495, N6-(3,4-dimethoxyphenyl)-1-(2-methoxyethyl)-N2-methyl-imidazo[4,5-c]pyridine-2,6-diamine] | 30 to 50%
CNc1nc2cnc(Nc3ccc(OC)cc3)cc2n1CCOC [Compound 496, 1-(2-methoxyethyl)-N6-(4-methoxyphenyl)-N2-methyl-imidazo[4,5-c]pyridine-2,6-diamine] | 50 to 100%

SMILES | Emax
CNc1nc2cnc(Nc3ccc4c(c3)OCO4)cc2n1CCOC [Compound 497, N6-(1,3-benzodioxol-5-yl)-1-(2-methoxyethyl)-N2-methyl-imidazo[4,5-c]pyridine-2,6-diamine] | 50 to 100%
CNc1nc2cnc(Nc3ccc(C(C)C)cc3)cc2n1CCOC [Compound 498, N6-(4-isopropylphenyl)-1-(2-methoxyethyl)-N2-methyl-imidazo[4,5-c]pyridine-2,6-diamine] | 30 to 50%
CNc1nc2cnc(Nc3ccc(SC)cc3)cc2n1CCOC [Compound 499, 1-(2-methoxyethyl)-N2-methyl-N6-(4-methylsulfanylphenyl)imidazo[4,5-c]pyridine-2,6-diamine] | 50 to 100%
CNc1nc2cnc(Nc3ccc(OC(C)C)cc3)cc2n1CCOC [Compound 500, N6-(4-isopropoxyphenyl)-1-(2-methoxyethyl)-N2-methyl-imidazo[4,5-c]pyridine-2,6-diamine] | 50 to 100%
CNc1nc2cnc(Nc3cc(OC)c(OC)c(OC)c3)cc2n1-c1ccccc1 [Compound 502, N2-methyl-1-phenyl-N6-(3,4,5-trimethoxyphenyl)imidazo[4,5-c]pyridine-2,6-diamine] | 50 to 100%
CNc1nc2cnc(Nc3cccc(OC)c3)cc2n1-c1ccccc1 [Compound 503, N6-(3-methoxyphenyl)-N2-methyl-1-phenyl-imidazo[4,5-c]pyridine-2,6-diamine] | 50 to 100%
CNc1nc2cnc(Nc3ccc(C(N)=O)cc3)cc2n1-c1ccccc1 [Compound 504, 4-[[2-(methylamino)-1-phenyl-imidazo[4,5-c]pyridin-6-yl]amino]benzamide] | 50 to 100%
CNc1nc2cnc(Nc3ccc4c(c3)OCCO4)cc2n1-c1ccccc1 [Compound 505, N6-(2,3-dihydro-1,4-benzodioxin-6-yl)-N2-methyl-1-phenyl-imidazo[4,5-c]pyridine-2,6-diamine] | 50 to 100%
CNc1nc2cnc(Nc3ccc(OC)c(OC)c3)cc2n1-c1ccccc1 [Compound 506, N6-(3,4-dimethoxyphenyl)-N2-methyl-1-phenyl-imidazo[4,5-c]pyridine-2,6-diamine] | 50 to 100%
CNc1nc2cnc(Nc3cccnc3)cc2n1-c1ccccc1 [Compound 507, N2-methyl-1-phenyl-N6-(3-pyridyl)imidazo[4,5-c]pyridine-2,6-diamine] | 30 to 50%
CNc1nc2cnc(Nc3cccc(N(C)C)c3)cc2n1-c1ccccc1 [Compound 508, N6-[3-(dimethylamino)phenyl]-N2-methyl-1-phenyl-imidazo[4,5-c]pyridine-2,6-diamine] | 50 to 100%
CNc1nc2cnc(Nc3ccc(OC)cc3)cc2n1-c1ccccc1 [Compound 509, N6-(4-methoxyphenyl)-N2-methyl-1-phenyl-imidazo[4,5-c]pyridine-2,6-diamine] | 50 to 100%
CNc1nc2cnc(Nc3ccc(C(=O)OC)cc3)cc2n1-c1ccccc1 [Compound 511, methyl 4-[[2-(methylamino)-1-phenyl-imidazo[4,5-c]pyridin-6-yl]amino]benzoate] | 30 to 50%
CNc1nc2cnc(Nc3ccc4c(c3)OCO4)cc2n1-c1ccccc1 [Compound 512, N6-(1,3-benzodioxol-5-yl)-N2-methyl-1-phenyl-imidazo[4,5-c]pyridine-2,6-diamine] | 50 to 100%
CNc1nc2cnc(Nc3cccc(O)c3)cc2n1-c1ccccc1 [Compound 513, 3-[[2-(methylamino)-1-phenyl-imidazo[4,5-c]pyridin-6-yl]amino]phenol] | 50 to 100%
CNc1nc2cnc(-c3cccs3)cc2n1-c1ccccc1 [Compound 514, N-methyl-1-phenyl-6-(2-thienyl)imidazo[4,5-c]pyridin-2-amine] | 30 to 50%
CNc1nc2cnc(Nc3ccc(C(=O)N(C)C)cc3)cc2n1-c1ccccc1 [Compound 515, N,N-dimethyl-4-[[2-(methylamino)-1-phenyl-imidazo[4,5-c]pyridin-6-yl]amino]benzamide] | 50 to 100%
CNc1nc2cnc(Nc3cccc(NC(C)=O)c3)cc2n1-c1ccccc1 [Compound 516, N-[3-[[2-(methylamino)-1-phenyl-imidazo[4,5-c]pyridin-6-yl]amino]phenyl]acetamide] | 50 to 100%
CNc1nc2cnc(Nc3cccc(C(C)=O)c3)cc2n1-c1ccccc1 [Compound 517, 1-[3-[[2-(methylamino)-1-phenyl-imidazo[4,5-c]pyridin-6-yl]amino]phenyl]ethanone] | 50 to 100%

same assay, conditions: insulin HTRF, supernatant of beta-TC6 cells, incubation with test compound at 37°C for 2, 3, 4h

SMILES | Ar (relative activity)
CNc1nc2cnc(-c3ccc(N(C)C)cc3)cc2n1-c1ccccc1 [Compound 501, 6-(4-dimethylaminophenyl)-N-methyl-1-phenyl-imidazo[4,5-c]pyridin-2-amine] | ++++ (Ar ≥ 100 %)
CNc1nc2cnc(-c3ccc(CO)cc3)cc2n1-c1ccccc1 [Compound 510, [4-[2-(methylamino)-1-phenyl-imidazo[4,5-c]pyridin-6-yl]phenyl]methanol] | ++ (30 % ≤ Ar < 50 %)
